Reference: patent US10597388B2, “Pyridazinone herbicides” (FMC CORPORATION, priority 2014, dated 2020)

Legend:
Assay type in all cases: in vivo
[1] = test system: wheat (Triticum aestivum); assay: Test A greenhouse herbicide test, pre- and postemergence; settings: Postemergence
Outline: (§1)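 Seeds sown in loam–sand blend got a preemergence directed soil spray of compound in non-phytotoxic solvent with surfactant. Postemergence treatment was given at 2–10 cm, one- to two-leaf stage. After ~10 d in greenhouse, injury was rated visually vs untreated controls, 0 (no effect) to 100 (complete control).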

[2] = test system: foxtail, giant (giant foxtail, Setaria faberii); assay: as above
Outline: as §1

corn (Zea mays) [3] = assay: as above; settings: Postemergence
Outline: as §1

[4] = test system: ryegrass, Italian (Italian ryegrass, Lolium multiflorum); assay: as above
Outline: as §1

[5] = test system: velvetleaf (Abutilon theophrasti); assay: Test C greenhouse herbicide test, pre- and postemergence
Outline: (§2)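 Each species was treated both before emergence, in a loam–sand soil mix, and after emergence, as 1- to 4-leaf seedlings in peat-based potting medium. Plants stayed in the greenhouse 13 to 15 d, then were scored from 0 (no effect) to 100 (complete control) relative to controls.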

soybean (Glycine max) = assay: as above
Outline: as §2

[6] = test system: pigweed (Amaranthus retroflexus); assay: as above
Outline: as §2

corn (Zea mays) [7] = assay: as above
Outline: as §2

[8] = test system: blackgrass (Alopecurus myosuroides); assay: as above
Outline: as §2

[9] = test system: waterhemp (common waterhemp, Amaranthus rudis); assay: as above
Outline: as §2

[10] = test system: nutsedge, yellow (yellow nutsedge, Cyperus esculentus); assay: as above
Outline: as §2

[11] = 125 g ai/ha, visual rating after approx. 10 d, 0 to 100 scale (0 no effect, 100 complete control)
[12] = 500 g ai/ha, 0 to 100 scale, 0 is no effect, 100 is complete control
[13] = Postemergence, 125 g ai/ha, visual rating after approx. 10 d, 0 to 100 scale (0 no effect, 100 complete control)
[14] = Postemergence, 500 g ai/ha, 0 to 100 scale, 0 is no effect, 100 is complete control
[15] = Preemergence, 125 g ai/ha, 0 to 100 scale where 0 is no effect and 100 is complete control
[16] = Preemergence, 500 g ai/ha, 0 to 100 scale, 0 no effect, 100 complete control
[17] = Postemergence, 31 g ai/ha, 0 to 100 scale (0 no effect, 100 complete control)
[18] = Postemergence, 125 g ai/ha, scale 0 to 100, 0 is no effect, 100 is complete control
[19] = Postemergence, 250 g ai/ha, scale 0 to 100, 0 no effect, 100 complete control, 13 to 15 d
[20] = Preemergence, 62 g ai/ha, scale 0 to 100, 0 is no effect, 100 is complete control
[21] = Preemergence, 125 g ai/ha, scale 0 to 100, 0 is no effect, 100 is complete control
[22] = Preemergence, 250 g ai/ha, scale 0 to 100, 0 no effect, 100 complete control
[23] = postemergence, 62 g ai/ha, scale 0 to 100, 0 no effect, 100 complete control
[24] = Preemergence, 31 g ai/ha, scale 0 to 100, 0 is no effect, 100 is complete control
[25] = 125 g ai/ha, 0 to 100 scale, 0 no effect, 100 complete control
[26] = 500 g ai/ha, visual rating after approx. 10 d, 0 to 100 scale (0 no effect, 100 complete control)
[27] = Postemergence, 125 g ai/ha, 0 to 100 scale, 0 no effect, 100 complete control
[28] = Postemergence, 500 g ai/ha, visual rating after approx. 10 d, 0 to 100 scale (0 no effect, 100 complete control)
[29] = Preemergence, 125 g ai/ha, visual injury rating, 0 to 100 scale (0 no effect, 100 complete control), approx. 10 d
[30] = Preemergence, 500 g ai/ha, 0 to 100 scale where 0 is no effect and 100 is complete control

Cc1ccc2ccccc2c1-c1c(O)c(Br)nn(C)c1=O [Compound 23]
Plant response rating, Wheat [1, 11]: 50 | Wheat plant response rating [1, 12]: 80 | Plant response rating, Foxtail, Giant [2, 13]: 90 | Foxtail, Giant plant response rating [2, 14]: 90 | Foxtail, Giant plant response rating [2, 15]: 90 | Plant response rating, Foxtail, Giant [2, 16]: 90 | Plant response rating, Corn (corn (Zea mays) [3]; [11]): 40 | Corn plant response rating (corn (Zea mays) [3]; [12]): 50 | Plant response rating, Ryegrass, Italian [4, 13]: 100 | Ryegrass, Italian plant response rating [4, 14]: 100 | Ryegrass, Italian plant response rating [4, 15]: 80 | Plant response rating, Ryegrass, Italian [4, 16]: 90 | Velvetleaf plant response rating [5, 17]: 70 | Plant response rating, Velvetleaf [5, 18]: 85 | Plant response rating, Velvetleaf [5, 19]: 90 | Plant response rating, Velvetleaf [5, 20]: 90 | Plant response rating, Velvetleaf [5, 21]: 100 | Velvetleaf plant response rating [5, 22]: 100 | Velvetleaf plant response rating [5, 23]: 85 | Soybean plant response rating (soybean (Glycine max); [17]): 5 | Plant response rating, Soybean (soybean (Glycine max); [18]): 10 | Plant response rating, Soybean (soybean (Glycine max); [19]): 15 | Plant response rating, Soybean (soybean (Glycine max); [20]): 0 | Plant response rating, Soybean (soybean (Glycine max); [21]): 5 | Soybean plant response rating (soybean (Glycine max); [22]): 55 | Soybean plant response rating (soybean (Glycine max); [23]): 10 | Pigweed plant response rating [6, 17]: 90 | Plant response rating, Pigweed [6, 18]: 98 | Plant response rating, Pigweed [6, 19]: 98 | Plant response rating, Pigweed [6, 24]: 100 | Plant response rating, Pigweed [6, 20]: 100 | Plant response rating, Pigweed [6, 21]: 100 | Pigweed plant response rating [6, 22]: 100 | Pigweed plant response rating [6, 23]: 98 | Corn plant response rating (corn (Zea mays) [7]; [17]): 10 | Plant response rating, Corn (corn (Zea mays) [7]; [18]): 10 | Plant response rating, Corn (corn (Zea mays) [7]; [19]): 25 | Plant response rating, Corn (corn (Zea mays) [7]; [24]): 0 | Plant response rating, Corn (corn (Zea mays) [7]; [20]): 0 | Plant response rating, Corn (corn (Zea mays) [7]; [21]): 30 | Corn plant response rating (corn (Zea mays) [7]; [22]): 65 | Corn plant response rating (corn (Zea mays) [7]; [23]): 30 | Blackgrass plant response rating [8, 17]: 50 | Plant response rating, Blackgrass [8, 18]: 70 | Plant response rating, Blackgrass [8, 19]: 85 | Plant response rating, Blackgrass [8, 24]: 45 | Plant response rating, Blackgrass [8, 20]: 85 | Plant response rating, Blackgrass [8, 21]: 90 | Blackgrass plant response rating [8, 22]: 90 | Blackgrass plant response rating [8, 23]: 60 | Waterhemp plant response rating [9, 17]: 80 | Plant response rating, Waterhemp [9, 18]: 85 | Plant response rating, Waterhemp [9, 19]: 98 | Plant response rating, Waterhemp [9, 20]: 100 | Plant response rating, Waterhemp [9, 21]: 100 | Waterhemp plant response rating [9, 22]: 100 | Waterhemp plant response rating [9, 23]: 55 | Nutsedge, Yellow plant response rating [10, 17]: 60 | Plant response rating, Nutsedge, Yellow [10, 18]: 85 | Plant response rating, Nutsedge, Yellow [10, 19]: 85 | Plant response rating, Nutsedge, Yellow [10, 24]: 40 | Plant response rating, Nutsedge, Yellow [10, 20]: 90 | Plant response rating, Nutsedge, Yellow [10, 21]: 85 | Nutsedge, Yellow plant response rating [10, 22]: 90 | Nutsedge, Yellow plant response rating [10, 23]: 70

CC(=O)Oc1c(Cl)nn(C)c(=O)c1-c1c(C)sc2ccc(C(F)(F)F)cc12 [Compound 152]
Plant response rating, Wheat [1, 25]: 30 | Plant response rating, Wheat [1, 26]: 50 | Plant response rating, Foxtail, Giant [2, 27]: 30 | Plant response rating, Foxtail, Giant [2, 28]: 50 | Plant response rating, Foxtail, Giant [2, 29]: 40 | Plant response rating, Foxtail, Giant [2, 30]: 90 | Plant response rating, Corn (corn (Zea mays) [3]; [25]): 0 | Plant response rating, Corn (corn (Zea mays) [3]; [26]): 0 | Plant response rating, Ryegrass, Italian [4, 27]: 30 | Plant response rating, Ryegrass, Italian [4, 28]: 90 | Plant response rating, Ryegrass, Italian [4, 29]: 90 | Plant response rating, Ryegrass, Italian [4, 30]: 100 | Plant response rating, Velvetleaf [5, 24]: 15 | Plant response rating, Velvetleaf [5, 20]: 40 | Plant response rating, Velvetleaf [5, 21]: 65 | Velvetleaf plant response rating [5, 22]: 75 | Plant response rating, Soybean (soybean (Glycine max); [24]): 0 | Plant response rating, Soybean (soybean (Glycine max); [20]): 5 | Plant response rating, Soybean (soybean (Glycine max); [21]): 5 | Soybean plant response rating (soybean (Glycine max); [22]): 10 | Plant response rating, Pigweed [6, 24]: 80 | Plant response rating, Pigweed [6, 20]: 100 | Plant response rating, Pigweed [6, 21]: 100 | Pigweed plant response rating [6, 22]: 100 | Plant response rating, Corn (corn (Zea mays) [7]; [24]): 15 | Plant response rating, Corn (corn (Zea mays) [7]; [20]): 10 | Plant response rating, Corn (corn (Zea mays) [7]; [21]): 10 | Corn plant response rating (corn (Zea mays) [7]; [22]): 15 | Plant response rating, Blackgrass [8, 24]: 5 | Plant response rating, Blackgrass [8, 20]: 5 | Plant response rating, Blackgrass [8, 21]: 30 | Blackgrass plant response rating [8, 22]: 35 | Plant response rating, Waterhemp [9, 24]: 20 | Plant response rating, Waterhemp [9, 20]: 85 | Plant response rating, Waterhemp [9, 21]: 85 | Waterhemp plant response rating [9, 22]: 75 | Plant response rating, Nutsedge, Yellow [10, 24]: 5 | Plant response rating, Nutsedge, Yellow [10, 20]: 20 | Plant response rating, Nutsedge, Yellow [10, 21]: 55 | Nutsedge, Yellow plant response rating [10, 22]: 85
